Several values for one entry are separate records, joined by “and”; a condition that tells them apart may be missing. Identical values can stand only once.
Legend:
[1] = test system: neonatal rat ventricular myocytes (NRVMs); assay: Mitochondrial membrane potential (JC-1) in NRVMs; format: cell-based
Experimental: FIG. 6A-6C. […] FIG. 6A. Mitochondrial membrane potential was assessed using JC-1 and fluorescent intensity was quantified using a plate reader. Red indicates intact mitochondrial membrane potential; green indicates compromised mitochondrial membrane potential (relative). Lysates were blotted for selected regulators of apoptosis and mitochondrial cell death effectors. Representative Western blots and summary findings from 3 independent experiments with at least 2 wells per condition in each experiment are shown.
JC-1 exists as a green fluorescent monomer at low mitochondrial membrane potential and a red fluorescent aggregate at high mitochondrial membrane potential. […] (FIGS. 6A-6C).
Mitochondrial membrane potential: Mitochondrial membrane potential in NRVMs was determined by 5, 5′, 6, 6′-tetrachloro-1, 1′, 3, 3′-tetraethylbenzimidazolylcarbocyanine iodide (JC-1) reduction. Cells were stained with JC-1 (Mitoprobe, Cayman Chemical Company) according to the manufacturer's protocol. In brief, serum-starved NRVMs were treated with DOX or vehicle in the presence or absence of dabuzalgron. […] Cells were washed once with medium then analyzed by plate reader (CLARIOstar, BMG LABTECH, Germany). JC-1 green fluorescence was excited at 488 nm and emission was detected using a 530±40 nm filter. JC-1 red fluorescence was excited at 488 nm and emission was detected using a 613±20 nm filter.

[2] = test system: mice lacking the α1A-AR (AKO); assay: Doxorubicin cardiotoxicity in mice lacking the α1A-AR (survival, anatomy, conscious echocardiography)
From the text: FIGS. 2A-2B. […] On Day 7 the mice underwent echocardiography prior to sacrifice. FIG. 2A. Fractional shortening, a measure of contractile function, with representative M-mode echocardiogram images. […] FIG. 2B. Heart sections from some of these mice (i.e. wild type mice) stained with Masson Trichrome. Fibrosis (weighted average collagen content) was quantified using Aperio ImageScope software.
C57Bl6J mice were from Jackson Laboratory or from our breeding colony. α1A-AR knockout (AKO) mice from Paul C. Simpson were congenic on a C57Bl6J background for at least 10 generations and produced by heterozygous breeding in our animal facility. 8-12 week old males were used in all experiments. Female Sprague-Dawley rats with newborn litters were from Charles River. Animal care and experimental protocols were approved by the UNC IACUC and complied with Guide for the Care and the use of Laboratory Animals (National Research Council Committee for the Update of the Guide for the Care and Use of Laboratory Animals, 2011).
(§1) On Day 7, mice underwent echocardiography and were sacrificed by cervical dislocation after an overdose of isoflurane.
Conscious transthoracic echocardiography was performed on loosely restrained mice in the McAllister Heart Institute Animal Models Core using a VisualSonics Vevo 2100 ultrasound system (VisualSonics, Inc., Toronto, Ontario, Canada). Two-dimensional and M-mode echocardiography were performed in the parasternal long-axis view at the level of the papillary muscle. Left ventricular systolic function was assessed by fractional shortening (% FS=[(LVEDD−LVESD)/LVEDD]×100). Reported values represent the average of at least five cardiac cycles per mouse. Sonographers and investigators were blinded to mouse treatment condition during image acquisition and analysis.

ERK = ERK activation in mouse heart lysates with DOX, dabuzalgron and trametinib; format: in vivo
From the text: FIGS. 4A-4F. […] The reaction was stopped immediately and lysates were blotted for total and phospho-ERK (pERK). FIG. 4A. […] FIG. 4B. […] FIG. 4C. […] The average pERK/ERK ratio for each experiment was derived from at least 2 individual wells and normalized to the pERK/ERK ratio for vehicle treated NRVMs. FIG. 4D and FIG. 4E. […] Heart lysates were blotted for pERK and ERK. Results were compared using one way ANOVA with Tukey post-test. FIG. 4F.
as §1
Homogenized tissue or cells were lysed in RIPA buffer with protease and phosphatase inhibitor (as above) and the lysate was passed through a Qiashredder. Equal protein abundance was assured with the Bradford assay (tissue lysates) or equal cell number (NRVMs). Samples were run for 2 hours at 140 v on ice on a Novex NuPAGE 4-12% Bis-Tris gel then transferred to a PVDF membrane at 90V for 1 hour on ice. Membranes were blocked in 5% milk at room temperature for 1 hour. We used Cell Signaling kit #9100 (pERK Thr202/Tyr204 1:250, ERK 1:1000, anti-rabbit HRP 1:1000). BID: (Santa Cruz, SC-11423); Cytochrome C: (Santa Cruz, SC-13560); AIF: (Santa Cruz, SC-13116); Caspase 8: (MBL international corporation, JM-3020-100); PARP: (Cell Signaling, #9532); Caspase 3: (Cell Signaling, #9665); Cleaved caspase 3: (Cell Signaling, #9664)

[3] = test system: neonatal rat ventricular myocytes (NRVMs); assay: Annexin V / propidium iodide apoptosis and cell death in NRVMs; format: cell-based
Experimental: FIGS. 5A-5B. In neonatal rat ventricular myocytes, dabuzalgron protects against apoptotic and necrotic cell death due to doxorubicin. […] Apoptosis was detected using FITC-labeled Annexin V, cell death was detected using propridium iodide, and nuclei were labeled with Hoechst. FIG. 5A. Representative epifluorescence microscopy for each treatment condition. FIG. 5B. Fluorescence intensity was analyzed using Image J software for 3 independent experiments, using at least 2 wells per condition for each experiment.
Cells were washed with cold PBS two times then incubated with 200 μl binding buffer (10 mM HEPES, 140 mM NaCl, and 2.5 mM CaCl2, pH 7.4) including 10 μL fluorescein isothiocyanate (FITC)-labeled Annexin V, 2 μL propidium iodide (PI) and 1 μg/mL Hoechst 33342 (Molecular Probes, USA) for 15 min at room temperature. They were examined under a epifluorescence microscopy (Olympus IX81 Inverted Light Microscope, UNC Microscopy Core). Images were analyzed using Image J software. The experiment was carried out three independent times with duplicates of each treatment condition. An average of 352 nuclei were counted in an average of 6 microscopic fields per experiment.

PGC1α = assay: qRT-PCR for PGC1α in mouse heart tissue; format: in vivo
Experimental: FIGS. 3A-3E. […] FIG. 3A. […] FIG. 3B. […] FIG. 3C. […] FIG. 3E.
(FIG. 3B). […] (FIG. 3C).
Total RNA was isolated from cells and tissue (QiagenRNeasy Plus mini kit #74134) and analyzed using a NanoDrop (ThermoScientific). For qRT-PCR, one […]g of RNA was reverse transcribed using High Capacity cDNA Reverse Transcription Kit (Life Technologies #4368814). Two step qRT-PCR reactions contained 2% of the cDNA product. All reactions were performed in triplicate in a Roche 480 Light Cycler. Relative quantitation of PCR products used the ΔΔCt method relative to two validated reference genes (Tbp and Polr2a). Similar efficiencies were confirmed for all primers. All probes and primers were from Roche.

[4] = NRVMs, DOX, four hour treatment
[5] = α1A-KO mice, Dox 20 mg/kg i.p. + dabuzalgron 20 μg/kg/d gavage 7 days
[6] = α1A-KO mice, Dox + 1240 20 μg/kg/d, Day 7 echocardiography

With `COc1cccc2c1C(=O)c1c(O)c3c(c(O)c1C2=O)C[C@@](O)(C(=O)CO)C[C@@H]3O[C@H]1C[C@H](N)[C@H](O)[C@H](C)O1` [DOX, doxorubicin] the “mitochondrial membrane potential (JC-1)” value ([1]; DOX for 4 hours) was “profound loss”, the “fractional shortening, DOX-treated AKO vs DOX-treated WT mice” value ([2]; mouse, in vivo) was “significantly lower” and the 7-day survival ([2]; α1A-KO mice, Dox 20 mg/kg i.p. + vehicle gavage 7 days) was 38% and 50%. For the same molecule, the 7-day survival ([2]; α1A-KO mice, Dox 20 mg/kg i.p. + vehicle gavage 7 days, listed as Dox) was 38%, the “ERK activation in heart” value (ERK; mice treated with DOX) was “reduced” and the “apoptosis (Annexin V staining)” value [3, 4] was “increased”. The “necrotic cell death (costaining with Annexin V and propidium iodide)” value [3, 4] was “increased” and the PGC1α abundance (PGC1α; mouse heart in vivo, DOX) was “decreased”.
In the case of `Cc1c(OCC2=NCCN2)ccc(Cl)c1NS(C)(=O)=O` [dabuzalgron, N-[6-chloro-3-(4,5-dihydro-1H-imidazol-2-ylmethoxy)-2-methylphenyl]methanesulfonamide], the “effect on DOX-induced loss of mitochondrial membrane potential” value ([1]; DOX for 4 hours with dabuzalgron 10 μM) is reported as “partially rescued”, the “effect on reduction in contractile function after DOX” value ([2]; AKO mice) is reported as “not rescued” and the “effect of dabuzalgron on survival after DOX” value ([2]; AKO mice, DOX 20 mg/kg i.p., dabuzalgron 10 μg/kg twice daily 7 days) is reported as “unaffected”. The 7-day survival [2, 5] was 50%, the “Body Wt Day 7” value [2, 5] was 26.4 ± 1.2 g and the HW/BW [2, 5] was 0.39 ± 0.01 %. For the same molecule, the HW/TL [2, 5] was 5.6 ± 0.2 mg/mm, the “Heart Wt” value [2, 5] was 101 ± 5 mg and the “Lung Wt/TL” value [2, 5] was 5.1 ± 0.2 mg/mm. The “FS (Fractional Shortening)” value [2, 6] was 42 ± 2%, the “HR (Heart Rate)” value [2, 6] was 618 ± 19 beats per minute and the “effect on DOX-induced reduction of ERK activation” value (ERK; mice, DOX + dabuzalgron) was “partially mitigated”. For the same molecule, the “ERK activation after trametinib” value (ERK; mice, DOX, dabuzalgron and trametinib) was “could not restore”, the “Annexin V or propidium iodide staining vs untreated cells” value [3] was “did not change” and the “effect on DOX-induced necrotic cell death” value ([3]; NRVMs, DOX 204 with dabuzalgron 1004, four hours) was “abrogated”. For the same molecule, the “effect on DOX-induced apoptosis” value ([3]; NRVMs, DOX with dabuzalgron 1004, four hours) was “abrogated”, the PGC1α abundance (PGC1α; hearts of mice treated with DOX) was “increased” and the PGC1α abundance (PGC1α; hearts of mice treated with vehicle control) was “increased”.
